Legend:
Assay in all cases: Kinase inhibitor library screening, PrestoBlue cell viability, 1 or 10 μM, 72 h
501Mel cells (parental) = conditions: 501Mel Parental, in %
How it was run: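 Normalised to untreated controls, viability percentages came from PrestoBlue measured on a microplate reader following 72 h incubation with drug. Each line was assayed at least twice.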

[1] = tested on: 501Mel-GP cells (Dabrafenib-resistant); conditions: 501Mel GP, in %; for Cell viability in kinase inhibitor library screening, 501Mel GP, 1μΜ / Cell viability in kinase inhibitor library screening, 501Mel GP, 10μΜ: 72 h
[2] = tested on: 501Mel-XP cells (Vemurafenib-resistant); conditions: 501Mel XP, in %; for Cell viability in kinase inhibitor library screening, 501Mel XP, 1μΜ / Cell viability in kinase inhibitor library screening, 501Mel XP, 10μΜ: 72 h
A375 cells (parental) = conditions: A375 Parental; for cell viability (kinase inhibitor library screening): in %; for Cell viability in kinase inhibitor library screening, A375 Parental, 10μΜ / Cell viability in kinase inhibitor library screening, A375 Parental, 1μΜ: 72 h
[3] = tested on: A375-GP cells (Dabrafenib-resistant); conditions: A375 GP; for cell viability (kinase inhibitor library screening): in %; for Cell viability in kinase inhibitor library screening, A375 GP, 1μΜ / Cell viability in kinase inhibitor library screening, A375 GP, 10μΜ: 72 h
[4] = tested on: A375-XP cells (Vemurafenib-resistant); conditions: A375 XP; for cell viability (kinase inhibitor library screening): in %; for Cell viability in kinase inhibitor library screening, A375 XP, 1μΜ / Cell viability in kinase inhibitor library screening, A375 XP, 10μΜ: 72 h
IGR37 cells (parental) = conditions: IGR37 Parental, in %; for Cell viability in kinase inhibitor library screening, IGR37 Parental, 1μΜ / Cell viability in kinase inhibitor library screening, IGR37 Parental, 10μΜ: 72 h
[5] = tested on: IGR37-GP cells (Dabrafenib-resistant); conditions: IGR37 GP; for cell viability (kinase inhibitor library screening) / Cell viability in kinase inhibitor library screening, IGR37 GP, 1μΜ: in %; for Cell viability in kinase inhibitor library screening, IGR37 GP, 10μΜ / Cell viability in kinase inhibitor library screening, IGR37 GP, 1μΜ: 72 h
[6] = tested on: IGR37-XP cells (Vemurafenib-resistant); conditions: IGR37 XP; for cell viability (kinase inhibitor library screening) / Cell viability in kinase inhibitor library screening, IGR37 XP, 1μΜ: in %; for Cell viability in kinase inhibitor library screening, IGR37 XP, 10μΜ / Cell viability in kinase inhibitor library screening, IGR37 XP, 1μΜ: 72 h

| Structure (SMILES) | cell viability (kinase inhibitor library screening) (501Mel cells (parental); 1μΜ) | cell viability (kinase inhibitor library screening) (501Mel cells (parental); 10μΜ) | cell viability (kinase inhibitor library screening) ([1]; 1μΜ) | cell viability (kinase inhibitor library screening) ([1]; 10μΜ) | cell viability (kinase inhibitor library screening) ([2]; 10μΜ) | cell viability (kinase inhibitor library screening) (A375 cells (parental); 1μΜ) | cell viability (kinase inhibitor library screening) (A375 cells (parental); 10μΜ) | cell viability (kinase inhibitor library screening) ([3]; 1μΜ) | cell viability (kinase inhibitor library screening) ([3]; 10μΜ) | cell viability (kinase inhibitor library screening) ([4]; 10μΜ) | cell viability (kinase inhibitor library screening) (IGR37 cells (parental); 10μΜ) | cell viability (kinase inhibitor library screening) ([5]; 1μΜ) | cell viability (kinase inhibitor library screening) ([5]; 10μΜ) | cell viability (kinase inhibitor library screening) ([6]; 1μΜ) | cell viability (kinase inhibitor library screening) ([6]; 10μΜ) | Cell viability in kinase inhibitor library screening, 501Mel Parental, 10μΜ (501Mel cells (parental); 10μΜ, 72 h) | Cell viability in kinase inhibitor library screening, 501Mel GP, 1μΜ ([1]; 1μΜ) | Cell viability in kinase inhibitor library screening, 501Mel GP, 10μΜ ([1]; 10μΜ) | Cell viability in kinase inhibitor library screening, 501Mel XP, 1μΜ ([2]; 1μΜ) | Cell viability in kinase inhibitor library screening, 501Mel XP, 10μΜ ([2]; 10μΜ) | further results |
| --- | --- | --- | --- | --- | --- | --- | --- | --- | --- | --- | --- | --- | --- | --- | --- | --- | --- | --- | --- | --- | --- |
| COc1cc2nccc(Oc3ccc(NC(=O)Nc4ccc(F)cc4F)c(F)c3)c2cc1OC [Ki8751] | 96.7 | 85.3 | 97.3 | 80.7 | 74.9 | 96.1 | 75.1 | 94.2 | 77.5 | 97.9 | 84.9 | 88.2 | 88.8 | 88.9 | 70.9 | – | – | – | – | – | cell viability (kinase inhibitor library screening) ([2]; 1μΜ): 89.9; cell viability (kinase inhibitor library screening) (IGR37 cells (parental); 1μΜ): 93.0 |
| COc1ccc(-c2ccc3c(N4CCOCC4)nc(N4C[C@@H](C)O[C@@H](C)C4)nc3n2)cc1CO [Ku-0063794] | – | – | – | – | – | – | – | – | – | – | – | – | – | – | – | 16.9 | 56.6 | 13.4 | 47.2 | 6.9 | Cell viability in kinase inhibitor library screening, 501Mel Parental, 1μΜ (501Mel cells (parental); 1μΜ, 72 h): 71.5; Cell viability in kinase inhibitor library screening, A375 Parental, 10μΜ (A375 cells (parental); 10μΜ): 24.0; Cell viability in kinase inhibitor library screening, A375 Parental, 1μΜ (A375 cells (parental); 1μΜ): 63.8; Cell viability in kinase inhibitor library screening, A375 GP, 1μΜ ([3]; 1μΜ): 63.9; Cell viability in kinase inhibitor library screening, A375 GP, 10μΜ ([3]; 10μΜ): 20.8; Cell viability in kinase inhibitor library screening, A375 XP, 1μΜ ([4]; 1μΜ): 54.3; Cell viability in kinase inhibitor library screening, A375 XP, 10μΜ ([4]; 10μΜ): 19.7; Cell viability in kinase inhibitor library screening, IGR37 Parental, 1μΜ (IGR37 cells (parental); 1μΜ): 73.4; Cell viability in kinase inhibitor library screening, IGR37 Parental, 10μΜ (IGR37 cells (parental); 10μΜ): 23.7; Cell viability in kinase inhibitor library screening, IGR37 GP, 10μΜ ([5]; 10μΜ): 36.1%; Cell viability in kinase inhibitor library screening, IGR37 GP, 1μΜ ([5]; 1μΜ): 76.2; Cell viability in kinase inhibitor library screening, IGR37 XP, 10μΜ ([6]; 10μΜ): 12.3%; Cell viability in kinase inhibitor library screening, IGR37 XP, 1μΜ ([6]; 1μΜ): 68.5 |
| c1ccc2c(-c3cnn4cc(-c5ccc(N6CCNCC6)cc5)cnc34)ccnc2c1 [LDN193189] | 119.0 | 0.949 | 129.1 | 1.7 | 0.8 | 104.5 | 1.7 | 104.8 | 3.4 | 2.6 | 0.221 | 94.5 | 4.6 | 103.7 | 3.2 | – | – | – | – | – | cell viability (kinase inhibitor library screening) ([4]; 1μΜ): 98.9 |
| O=c1cc(N2CCOCC2)oc2c(-c3ccccc3)cccc12 [LY294002] | – | – | – | – | – | – | – | – | – | – | – | – | – | – | – | 86.8 | 104.8 | 77.9 | 91.4 | 68.2 | Cell viability in kinase inhibitor library screening, A375 Parental, 10μΜ (A375 cells (parental); 10μΜ): 80.4; Cell viability in kinase inhibitor library screening, A375 Parental, 1μΜ (A375 cells (parental); 1μΜ): 105.7; Cell viability in kinase inhibitor library screening, A375 GP, 1μΜ ([3]; 1μΜ): 104.5; Cell viability in kinase inhibitor library screening, A375 GP, 10μΜ ([3]; 10μΜ): 79.2; Cell viability in kinase inhibitor library screening, A375 XP, 1μΜ ([4]; 1μΜ): 104.6; Cell viability in kinase inhibitor library screening, A375 XP, 10μΜ ([4]; 10μΜ): 90.9; Cell viability in kinase inhibitor library screening, IGR37 Parental, 1μΜ (IGR37 cells (parental); 1μΜ): 106.7; Cell viability in kinase inhibitor library screening, IGR37 Parental, 10μΜ (IGR37 cells (parental); 10μΜ): 84.5; Cell viability in kinase inhibitor library screening, IGR37 GP, 10μΜ ([5]; 10μΜ): 72.8%; Cell viability in kinase inhibitor library screening, IGR37 GP, 1μΜ ([5]; 1μΜ): 100.0; Cell viability in kinase inhibitor library screening, IGR37 XP, 10μΜ ([6]; 10μΜ): 46.1%; Cell viability in kinase inhibitor library screening, IGR37 XP, 1μΜ ([6]; 1μΜ): 100.0 |

Source: PMC6364417, “Kinase inhibitor library screening identifies synergistic drug combinations effective in sensitive and resistant melanoma cells” (Journal of Experimental & Clinical Cancer Research : CR, 2019)
